Consider one compound from article PMC10305181, “A VEGFB-Based Peptidomimetic Inhibits VEGFR2-Mediated PI3K/Akt/mTOR and PLCγ/ERK Signaling and Elicits Apoptotic, Antiangiogenic, and Antitumor Activities” (Pharmaceuticals, 2023).

Where two headings read alike, the source gives them in different places. Bridge positions count the residues as written; N and C are the ends. Peptide text beside a SMILES is read from it.

In experiment [1] the test system is HUVECs. Put plainly: MTT assay, HUVECs. The experiment is classed as cell-based, human. The note with it: VEGF 20 ng·mL^−1, C-VGB3 0–0.91 μM, n = 3, read-out: half-inhibitory concentration (IC50), cell viability. On the procedure:
Figure 4 Inhibition of EC proliferation and tubulogenesis by C-VGB3 through abrogation of VEGFR2-mediated signaling pathways. (A) MTT assay was performed to investigate C-VGB3 effect on the proliferation of ECs. C-VGB3 (0–0.91 μM) was used with (20 ng·mL^−1) or without VEGF. The control cells were treated with no peptide. After 24 and 48 h, the absorbance was measured at 570 nm utilizing an ELISA plate reader (Space Fax 2100, Awareness, Westport, CT, USA). Error bars indicate ± SEM. n = 3; * p = 0.02, ** p = 0.001, *** and ### p = 0.0001, **** and #### p < 0.0001, ns = not significant; one-way ANOVA. (B) The anti-tubulogenesis effect of C-VGB3 in VEGF (20 ng·mL^−1)-induced HUVECs. Image analysis performed by Wimasis image analysis software is illustrated in the bottom panel. Error bars indicate ±SEM. n = 3; *** 0.0004 ≤ p ≤ 0.0001; unpaired Student’s t-test. To evaluate the mechanism by which C-VGB3 diminished cell proliferation and tube formation, Western blot analysis was performed for HUVECs. […]
The effects of C-VGB3 and L-VGB3 on the cell survival of HUVE and 4T1 cell lines were investigated using the MTT assay, as previously described, with some modifications. […] After 24 and 48 h of incubation at 37 °C, the absorbance at 570 nm was recorded using an ELISA plate reader (Space Fax 2100, Awareness, Palm City, FL, USA). […]

Experiment [2] relates to HUVECs. Nature of the experiment: Annexin V/PI flow cytometry, HUVECs. The experiment is classed as cell-based, human. As to conditions: 0.40 μM, 24 h, VEGF 20 ng·mL^−1; control 9.61; n = 3; p < 0.0001; in % (unit assumed). On the procedure:
An important consequence of VEGF signals is cell survival dominantly via PI3K/AKT/mTOR pathway. Thus, inhibition of VEGF signals leads to the induction of apoptosis. Accordingly, the ability of C-VGB3 to induce apoptosis was investigated. First, apoptotic endothelial and tumor cells were analyzed by flow cytometry after staining with annexin V-FITC and PI. (Figure 6A). Treatment with C-VGB3 (0.40 μM) induced significant apoptosis in both cell lines compared to the controls. […] Apoptosis induction by C-VGB3 was further characterized by the TUNEL assay, as an indicator of late apoptosis, with a confocal microscope (Figure 6B).
Annexin V/Propidium Iodide flow cytometry was performed to investigate the C-VGB3 effect on apoptosis induction, as previously described, with some modifications. […]

In another experiment the test system is ectodomain of VEGFR1. As to conditions: ref [9], cited from earlier work. On the procedure:
Our previous study has shown that a peptide reproducing helix α1 of VEGFB can unexpectedly interfere with VEGF binding to VEGFR2 and, consequently, inhibit VEGF-stimulated angiogenesis and tumor growth. In the present study, we extend this observation using another peptide (C-VGB3) that mimics loop2 and its adjacent region of VEGFB. […] For instance, competitive binding of C-VGB3 (100 μM) with biotinyl ...

Experiment [3] relates to HUVECs. Put plainly: TUNEL assay, HUVECs. In kind it is cell-based, human. As to conditions: 0.40 μM, n = 3, p < 0.0001. An excerpt: Periodic boundary conditions were used, and bonds were restrained by applying the LINCS algorithm to their equilibrium position. Initial structures were solvated with three-point model water molecules in a cubic box of 1.0 nm to fully cover the protein system in water, following periodic boundary conditions (PBC). The produced system for each peptide was neutralized through the “genion tool” plugin of the GROMACS package by adding ions Na+ and Cl−. Then, the system was minimized for 50000 iterations using the steepest descent (SD) algorithm and using velocity rescaling (modiﬁed Berendsen) temperature coupling and Parrinello-Rahman pressure coupling methods, simulated under an isothermal-isobaric ensemble (NPT) for 5 ns at a constant temperature, the pressure of 300 K, and 1 atm, respectively. The NVT and NPT equilibration was carried out for 50000 steps. The minimization and equilibration procedures were executed, and finally, one system of the peptide was subjected to a 200 ns production run of MD simulations utilizing 2 fs as the time step and coordinates of all atoms were recorded in the form of .trr GROMACS trajectory ﬁle every 10 ps.
2 × 10^3 HUVE or 4T1 cells were cultured in DMEM and RPMI-1640 media, respectively, supplemented with 10% (v/v) FBS overnight. Then, the cells were incubated in the media supplemented with 5% FBS, with PBS or C-VGB3 (0.40 μM). […]

On to `CC(C)C[C@@H]1NC(=O)CNC(=O)[C@H](CC(=O)O)NC(=O)[C@H](CC(=O)O)NC(=O)[C@@H]2CCCN2C(=O)[C@@H]2CCCN2C(=O)[C@H](CCCNC(=N)N)NC(=O)[C@@H](NC(=O)[C@@H](N)CCC(=O)O)CSSC[C@@H](C(=O)O)NC1=O` [C-VGB3] (H-ECRPPDDGLC-OH; disulfide 2-10), for which the IC50 in the experiment on HUVECs [1] (24 h) came out at 510 nM; with HUVECs [1] (48 h) it was 380 nM. Also, the “level of apoptotic cells” value in the experiment on HUVECs [2] is 56.62. Moreover, the “displacement of btVEGF165” value in the experiment on ectodomain of VEGFR1 (100 μM, ectodomain of VEGFR1) is recorded as 63%. Moreover, the “binding to VEGFR1” value with ectodomain of VEGFR1 was “bind and neutralize VEGFR1”. In addition, the TUNEL fluorescent labeling entry with HUVECs [3] is “fluorescent-labeled more than control cells”.
